# Measurements published in patent US6989263B1, “Method for identifying and using compounds that inactivate HIV-1 and other retroviruses by attacking highly conserved zinc fingers in the viral nucleocapsid protein” (The United States of America as represented by the …, priority 1994, dated 2006).
# Legend:
# [1] = molecular target: T1, p7NC (Human immunodeficiency virus type 1 group M subtype B, UniProt P05888); assay: HPLC analysis of reaction products of purified p7NC with reagent; assay type: biochemical, HIV-1
# T1 construct: The NC protein of HIV-1 (MN) p7NC was expressed in E. coli; made in house; host or cells: E. coli (vector pMAL-c)
# Summary of the method: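 Purified zinc-reconstituted p7NC (63 μM) incubated 10 min with reagent at 6:1 reagent:protein; products resolved by reversed-phase C-18 HPLC at pH 2 (0.05% TFA) with acetonitrile gradient. Rated fast (full conversion), slow (>10% native remaining) or very slow (>50% native remaining).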
# [2] = system: HIV-1MN; assay: Effect of NOBA on intact HIV-1MN (p24, zinc, TCIU of pelleted virus); assay type: cell-based; conditions: for Zn: pelleted virus
# [3] = system: HIV-1; conditions: incubation of HIV-1; cited from earlier work
# [4] = system: lymphocytes; conditions: cited from earlier work
# [5] = molecular target: HV-1 protease (Human immunodeficiency virus type 1 group M subtype B, UniProt P04585); conditions: cited from earlier work
# [6] = system: genomic RNA; conditions: cited from earlier work
# [7] = molecular target: reverse transcriptase enzyme (Human immunodeficiency virus type 1 group M subtype B, UniProt P04585); conditions: cited from earlier work
# [8] = molecular target: HIV-1 CCHC zinc finger array (Human immunodeficiency virus type 1 group M subtype B, UniProt P04591); conditions: incubation of HIV-1; cited from earlier work
smiles,measurement,setting,value
"NC(=O)c1cccc(N=O)c1 [NOBA, 3-nitrosobenzamide]","reaction with purified p7NC (HPLC), in words",[1],oxidizes p7NC to products eluting as peaks A and B
same,virus inactivated,"[2]; 0.03 mM, ratio of NOBA to zinc fingers 50:1",greater than 99%
same,tissue culture infectious unit (TCIU/ml),"[2]; NOBA 0.03 mM, 2 hours",1.0 × 10^3 TCIU/ml
same,Zn,"[2]; NOBA 0.03 mM, 2 hours",0.21 µg/mL
same,Zn,"[2]; NOBA 0.3 mM, 2 hours",0.21 µg/mL
same,Zn,"[2]; NOBA 3.0 mM, 2 hours",0.11 µg/mL
same,viral inactivation,[3],viral inactivation
same,bindings of virus to lymphocytes,[4],did not influence
same,enzymatic activity of HV-1 protease,[5],did not influence
same,levels of genomic RNA in the inactivated virus,[6],did not influence
same,effect on the reverse transcriptase enzyme,[7],without direct impairment
same,zinc loss from the HIV-1 CCHC zinc finger array,[8],loss of zinc
